Results published in EP1948196B1, “USE OF TETRAORGANOSILICON COMPOUNDS” (Salama, Zoser B., priority 2005, dated 2007).
≈ marks a conversion by molar mass, not a printed value. Read-outs that look alike come from different tables or passages of the source. Numbered stars: 1 amine (or outer) side, 2 acyl side, 3 side chain; on linkers, the order of the positions; unused ones are H or OH. Bridge positions count the residues as written; N and C are the ends. Peptide text beside a SMILES is read from it. I, II: the chains in the order shown. X2 = c1ccc([Si](O[*:1])(O[*:2])c2ccccc2)cc1; X1 = C[Si](C)(O[*:1])O[*:2]

Assays:
Osteosarkome = assay: Effect on osteosarcomas
Rhino-Viren = assay: Antiviral effect; settings: in particular as vesicles holding antisense constructs
Angiosarkome = assay: Effect on angiosarcomas
Seminome = assay: Effect on seminomas
Hepatitis B-Viren = assay: Antiviral effect; settings: in particular as vesicles holding antisense constructs
Lymphome = assay: Effect on lymphomas
[1] = system: BxPC3 (pankreatisches Adenokarzinom); assay: MTT test, triplicate, two-fold dilutions; assay type: cell-based; settings: Homo sapiens
Procedure: (§1) Die Silan wurden in Ethanol aufgelöst und in Zellkulturmedien in Konzentrationen von bis zu 500 µg/ml resuspendiert. Es wurden MTT Tests in dreifacher Ausführung durchgeführt, für welche doppelte Lösungen (7 Schritte) und colo205 (Kofon-Karzinom), BxPC3 (pankreatisches Adenokarzinom) sowie T47D (Brustkrebs) benutzt wurden.

T47D (Brustkrebs) = assay: MTT test, triplicate, two-fold dilutions; assay type: cell-based; settings: Homo sapiens, T47D, read-out: IC50 T47D
Procedure: as §1

colo205 (Kofon-Karzinom) = assay: MTT test, triplicate, two-fold dilutions; assay type: cell-based; settings: Homo sapiens
Procedure: as §1

[2] = system: Plattenepihtelkarzinomen oder Plasmozytomen; assay: Effect against metastasis in rats; assay type: in vivo; settings: in Ratten
[3] = COLO 205, read-out: IC50 Colo205
[4] = BXPC-3, up to 500 µg/ml, read-out: IC50 BxPC3
[5] = COLO 205, up to 500 µg/ml, read-out: IC50 Colo205

## CCCCCCCC/C=C\CCCCCCCC(=O)O[Si](OC(=O)CCCCCCC/C=C\CCCCCCCC)(c1ccccc1)c1ccccc1
Osteosarkome
  Wirkung auf Osteosarkome: zeigen eine Wirkung
Rhino-Viren
  Wirkung gegen Rhino-Viren: zeigen eine Wirkung

## CCCCC/C=C\C/C=C\CCCCCCCC(=O)O[Si](OC(=O)CCCCCCC/C=C\C/C=C\CCCCC)(c1ccccc1)c1ccccc1 [Di (linoylooxy)diphenylsilan]
Osteosarkome
  Wirkung auf Osteosarkome: zeigen eine Wirkung
Rhino-Viren
  Wirkung gegen Rhino-Viren: zeigen eine Wirkung

## CCCCCCCCCCCC(=O)O[Si](CCC)(CCC)OC(=O)CCCCCCCCCCC [Di(dodecanoyloxy)dipropylsilan]
Angiosarkome
  Wirkung gegen Angiosarkome: zeigen eine Wirkung
Seminome
  Wirkung auf Seminome: zeigen eine Wirkung
Hepatitis B-Viren
  Wirkung gegen Hepatitis B-Viren: zeigen eine Wirkung

## CCCCCCCCCCCCCCCCC(=O)O[Si](OC(=O)CCCCCCCCCCCCCCCC)(c1ccccc1)c1ccccc1 [Di(heptadecanoyloxy)diphenylsilan]
Osteosarkome
  Wirkung auf Osteosarkome: zeigen eine Wirkung
Rhino-Viren
  Wirkung gegen Rhino-Viren: zeigen eine Wirkung

## CC/C=C\C/C=C\C/C=C\CCCCCCCC(=O)O[Si](OC(=O)CCCCCCC/C=C\C/C=C\C/C=C\CC)(c1ccccc1)c1ccccc1 [Di(linolenoylooxy)diphenylsilan]
Osteosarkome
  Wirkung auf Osteosarkome: zeigen eine Wirkung
Rhino-Viren
  Wirkung gegen Rhino-Viren: zeigen eine Wirkung

## CCCCCCCCC(=O)O[Si](OC(=O)CCCCCCCC)(c1ccccc1)c1ccccc1 [Di(nonanoyloxy)diphenylsilan]
Osteosarkome
  Wirkung auf Osteosarkome: zeigen eine Wirkung
Rhino-Viren
  Wirkung gegen Rhino-Viren: zeigen eine Wirkung

## CCCCCCCCCCCCCCC(=O)O[Si](CCC)(CCC)OC(=O)CCCCCCCCCCCCCC [Di(pentadecanoyloxy)dipropylsilan]
Angiosarkome
  Wirkung gegen Angiosarkome: zeigen eine Wirkung
Seminome
  Wirkung auf Seminome: zeigen eine Wirkung
Hepatitis B-Viren
  Wirkung gegen Hepatitis B-Viren: zeigen eine Wirkung

## CCCCCCCCCCCCCC(=O)O[Si](CCC)(CCC)OC(=O)CCCCCCCCCCCCC [Di(tetradecanoyloxy)dipropylsilan]
Angiosarkome
  Wirkung gegen Angiosarkome: zeigen eine Wirkung
Seminome
  Wirkung auf Seminome: zeigen eine Wirkung
Hepatitis B-Viren
  Wirkung gegen Hepatitis B-Viren: zeigen eine Wirkung

## CCCCCCCCCCCCC(=O)O[Si](CCC)(CCC)OC(=O)CCCCCCCCCCCC [Di(tridecanoyloxy)dipropylsilan]
Angiosarkome
  Wirkung gegen Angiosarkome: zeigen eine Wirkung
Seminome
  Wirkung auf Seminome: zeigen eine Wirkung
Hepatitis B-Viren
  Wirkung gegen Hepatitis B-Viren: zeigen eine Wirkung

## CCCCCCCCCCC(=O)O[Si](OC(=O)CCCCCCCCCC)(c1ccccc1)c1ccccc1 [Di(undecanoyloxy)diphenylsilan]
Osteosarkome
  Wirkung auf Osteosarkome: zeigen eine Wirkung
Rhino-Viren
  Wirkung gegen Rhino-Viren: zeigen eine Wirkung

## C[Si](C)(OC(=O)[C@H](Cc1ccccc1)NC(=O)[C@H](Cc1ccccc1)NC(=O)[C@H](Cc1ccccc1)NC(=O)[C@H](Cc1ccccc1)NC(=O)[C@H](Cc1ccccc1)NC(=O)[C@H](Cc1ccccc1)NC(=O)[C@H](Cc1ccccc1)NC(=O)[C@@H](N)Cc1ccccc1)OC(=O)[C@H](Cc1ccccc1)NC(=O)[C@H](Cc1ccccc1)NC(=O)[C@H](Cc1ccccc1)NC(=O)[C@H](Cc1ccccc1)NC(=O)[C@H](Cc1ccccc1)NC(=O)[C@H](Cc1ccccc1)NC(=O)[C@H](Cc1ccccc1)NC(=O)[C@@H](N)Cc1ccccc1 [Dimethyl bis(octaphenylalanyl)silylester] (I: H-FFFFFFFF / II: H-FFFFFFFF; linker I:C-II:C via X1)
Lymphome
  Wirkung auf Lymphome: zeigen eine Wirkung

## N[C@@H](Cc1ccccc1)C(=O)N[C@@H](Cc1ccccc1)C(=O)N[C@@H](Cc1ccccc1)C(=O)N[C@@H](Cc1ccccc1)C(=O)N[C@@H](Cc1ccccc1)C(=O)N[C@@H](Cc1ccccc1)C(=O)N[C@@H](Cc1ccccc1)C(=O)N[C@@H](Cc1ccccc1)C(=O)N[C@@H](Cc1ccccc1)C(=O)N[C@@H](Cc1ccccc1)C(=O)O[Si](OC(=O)[C@H](Cc1ccccc1)NC(=O)[C@H](Cc1ccccc1)NC(=O)[C@H](Cc1ccccc1)NC(=O)[C@H](Cc1ccccc1)NC(=O)[C@H](Cc1ccccc1)NC(=O)[C@H](Cc1ccccc1)NC(=O)[C@H](Cc1ccccc1)NC(=O)[C@H](Cc1ccccc1)NC(=O)[C@H](Cc1ccccc1)NC(=O)[C@@H](N)Cc1ccccc1)(c1ccccc1)c1ccccc1 [Diphenyl bis(decaphenylalanyl) silylester] (I: H-FFFFFFFFFF / II: H-FFFFFFFFFF; linker I:C-II:C via X2)
Plasmozytome
  Wirkung auf Plasmozytome: zeigen eine Wirkung

## N[C@@H](Cc1ccccc1)C(=O)N[C@@H](Cc1ccccc1)C(=O)N[C@@H](Cc1ccccc1)C(=O)N[C@@H](Cc1ccccc1)C(=O)N[C@@H](Cc1ccccc1)C(=O)N[C@@H](Cc1ccccc1)C(=O)N[C@@H](Cc1ccccc1)C(=O)O[Si](OC(=O)[C@H](Cc1ccccc1)NC(=O)[C@H](Cc1ccccc1)NC(=O)[C@H](Cc1ccccc1)NC(=O)[C@H](Cc1ccccc1)NC(=O)[C@H](Cc1ccccc1)NC(=O)[C@H](Cc1ccccc1)NC(=O)[C@@H](N)Cc1ccccc1)(c1ccccc1)c1ccccc1 [Diphenyl bis(heptaphenylalanyl)silylester] (I: H-FFFFFFF / II: H-FFFFFFF; linker I:C-II:C via X2)
Plasmozytome
  Wirkung auf Plasmozytome: zeigen eine Wirkung

## N[C@@H](Cc1ccccc1)C(=O)N[C@@H](Cc1ccccc1)C(=O)N[C@@H](Cc1ccccc1)C(=O)N[C@@H](Cc1ccccc1)C(=O)N[C@@H](Cc1ccccc1)C(=O)N[C@@H](Cc1ccccc1)C(=O)O[Si](OC(=O)[C@H](Cc1ccccc1)NC(=O)[C@H](Cc1ccccc1)NC(=O)[C@H](Cc1ccccc1)NC(=O)[C@H](Cc1ccccc1)NC(=O)[C@H](Cc1ccccc1)NC(=O)[C@@H](N)Cc1ccccc1)(c1ccccc1)c1ccccc1 [Diphenyl bis(hexaphenylalanyl)silylester] (I: H-FFFFFF / II: H-FFFFFF; linker I:C-II:C via X2)
Plasmozytome
  Wirkung auf Plasmozytome: zeigen eine Wirkung

## N[C@@H](Cc1ccccc1)C(=O)N[C@@H](Cc1ccccc1)C(=O)N[C@@H](Cc1ccccc1)C(=O)N[C@@H](Cc1ccccc1)C(=O)N[C@@H](Cc1ccccc1)C(=O)N[C@@H](Cc1ccccc1)C(=O)N[C@@H](Cc1ccccc1)C(=O)N[C@@H](Cc1ccccc1)C(=O)N[C@@H](Cc1ccccc1)C(=O)O[Si](OC(=O)[C@H](Cc1ccccc1)NC(=O)[C@H](Cc1ccccc1)NC(=O)[C@H](Cc1ccccc1)NC(=O)[C@H](Cc1ccccc1)NC(=O)[C@H](Cc1ccccc1)NC(=O)[C@H](Cc1ccccc1)NC(=O)[C@H](Cc1ccccc1)NC(=O)[C@H](Cc1ccccc1)NC(=O)[C@@H](N)Cc1ccccc1)(c1ccccc1)c1ccccc1 [Diphenyl bis(nonaphenylalanyl)silylester] (I: H-FFFFFFFFF / II: H-FFFFFFFFF; linker I:C-II:C via X2)
Plasmozytome
  Wirkung auf Plasmozytome: zeigen eine Wirkung

## N[C@@H](Cc1ccccc1)C(=O)N[C@@H](Cc1ccccc1)C(=O)N[C@@H](Cc1ccccc1)C(=O)N[C@@H](Cc1ccccc1)C(=O)N[C@@H](Cc1ccccc1)C(=O)N[C@@H](Cc1ccccc1)C(=O)N[C@@H](Cc1ccccc1)C(=O)N[C@@H](Cc1ccccc1)C(=O)O[Si](OC(=O)[C@H](Cc1ccccc1)NC(=O)[C@H](Cc1ccccc1)NC(=O)[C@H](Cc1ccccc1)NC(=O)[C@H](Cc1ccccc1)NC(=O)[C@H](Cc1ccccc1)NC(=O)[C@H](Cc1ccccc1)NC(=O)[C@H](Cc1ccccc1)NC(=O)[C@@H](N)Cc1ccccc1)(c1ccccc1)c1ccccc1 [Diphenyl bis(octaphenylalanyl)silylester] (I: H-FFFFFFFF / II: H-FFFFFFFF; linker I:C-II:C via X2)
Plasmozytome
  Wirkung auf Plasmozytome: zeigen eine Wirkung

## CCCCCCCCCCCCC(=O)O[Si](C)(C)OC(=O)CCCCCCCCCCCC [Si 3, Di (tridecanoyloxy) dimethylsilan]
[1]; BXPC-3, read-out: IC50 BxPC3
  IC50: 80 µg/mL (≈ 165 µM)
T47D (Brustkrebs)
  IC50: 80 µg/mL (≈ 165 µM)
colo205 (Kofon-Karzinom); [3]
  IC50: 230 µg/mL (≈ 474 µM)
[2]
  Wirkung gegen die Metastasierung von Plattenepihtelkarzinomen oder Plasmozytomen: zeigen eine Wirkung

## CCCCCCCCCCC(=O)O[Si](CC)(CC)OC(=O)CCCCCCCCCC [Si 4, Di (undecanoyloxy) diethylslan]
[1]; [4]
  IC50: 100 µg/mL (≈ 219 µM)
T47D (Brustkrebs); up to 500 µg/ml
  IC50: 180 µg/mL (≈ 394 µM)
colo205 (Kofon-Karzinom); [5]
  IC50: 200 µg/mL (≈ 438 µM)
[2]
  Wirkung gegen die Metastasierung von Plattenepihtelkarzinomen oder Plasmozytomen: zeigen eine Wirkung

## CCCCCCCCCCCCC(=O)O[Si](OC(=O)CCCCCCCCCCCC)(c1ccccc1)c1ccccc1 [Si 7, Di (tridecanoyloxy) diphenylslan]
[1]; [4]
  IC50: 60 µg/mL (≈ 98.5 µM)
T47D (Brustkrebs); up to 500 µg/ml
  IC50: 80 µg/mL (≈ 131 µM)
colo205 (Kofon-Karzinom); [5]
  IC50: 125 µg/mL (≈ 205 µM)
Osteosarkome
  Wirkung auf Osteosarkome: zeigen eine Wirkung
Rhino-Viren
  Wirkung gegen Rhino-Viren: zeigen eine Wirkung

## CCCCCCCCCC(=O)O[Si](CC)(CC)OC(=O)CCCCCCCCC [Si 12, Di (decanoyloxy) diethylsilan]
[1]; BXPC-3, read-out: IC50 BxPC3
  IC50: 140 µg/mL (≈ 327 µM)
T47D (Brustkrebs)
  IC50: 600 µg/mL (≈ 1400 µM)
colo205 (Kofon-Karzinom); [3]
  IC50: 300 µg/mL (≈ 700 µM)
[2]
  Wirkung gegen die Metastasierung von Plattenepihtelkarzinomen oder Plasmozytomen: zeigen eine Wirkung

## Diethyl bis(biphenylalanyl)silylester
Lymphome
  Wirkung auf Lymphome: zeigen eine Wirkung
